US20060015954A1, “GPR54 knock-out mammals and screening methods using them” (Paradigm Therapeutics Limited, priority 2002, published 2006)
Where two headings read alike, the source gives them in different places. Ends that are not written are not given here.

Key:
[1] = test system: FSH secretion from the pituitary; experiment: Serum FSH assay after administration of exogenous GnRH; type: in vivo, mice
Description: (§1) 3) Administration of Exogenous GnRH and Effects on FSH and LH Secretion from the Pituitary
(§2) Method: 25 ng of GnRH peptide was injected 4 times in 30 min intervals and the animals killed to collect blood and pituitary 30 min after last injection. All mice were killed between 11 am-1 pm.
(§3) Animal groups: 6 WT injected with just PBS (control), 6 WT injected with GnRH made in PBS and 6 HP injected with GnRH/PBS. All WT animals were staged and used at dioestrous (end of LH and FSH surge). All mice aged 2-4 months. This was repeated for LH and FSH measurements.
Serum FSH assay: There is a 1.9-fold increase in FSH in serum of WT injected with GnRH compared to those injected with just PBS.

[2] = test system: LH levels in the pituitary; experiment: Depletion of LH levels in the pituitary after stimulation by exogenous GnRH; type: in vivo, mice; conditions: mutants, FIG. 15b
Description: as §2, §3
Measurement of the depletion of LH levels in the pituitary after stimulation by exogenous was measured. […] There were no deleterious effects of knocking out the gene in the mutants.

[3] = test system: LH secretion from the pituitary; experiment: Serum LH assay after administration of exogenous GnRH; type: in vivo, mice
Description: as §1, §2, §3
Serum LH assay: There is a 5-fold increase in LH in serum of WT injected with GnRH compared to those injected with just PBS.

GPR54 = GPR54 (Homo sapiens, UniProt Q969F8); conditions: Lee et al 1999; Ohtaki et al 2001; cited from earlier work
oxytocin secretion = conditions: intravenous injection, female rat; Kotani et al 2001; cited from earlier work
melanomas = conditions: mice with melanomas injected in footpads, administration by perfusion; Ohtaki et al 2001; cited from earlier work
[4] = test system: B16-L16 melanoma cells transfected with the GPR54 receptor; conditions: cited from earlier work
[5] = test system: ovaries (ovulation of mature oocytes); experiment: Exogenous gonadotrophins: ovulation in GPR54 mutant females; type: in vivo, mice; conditions: 1000 iu PMS followed two days later by 1000 iu bHCG, n=6
From the text: This is consistent with the hypothesis that GPR54 receptors and ligands are acting at the level of the pituitary hypothalamic axis and not the end-organs.

[6] = HP (GPR54 knockout) mice injected with GnRH against WT injected with just PBS

Chain of GPR54 (Q969F8 whole entry, species assumed): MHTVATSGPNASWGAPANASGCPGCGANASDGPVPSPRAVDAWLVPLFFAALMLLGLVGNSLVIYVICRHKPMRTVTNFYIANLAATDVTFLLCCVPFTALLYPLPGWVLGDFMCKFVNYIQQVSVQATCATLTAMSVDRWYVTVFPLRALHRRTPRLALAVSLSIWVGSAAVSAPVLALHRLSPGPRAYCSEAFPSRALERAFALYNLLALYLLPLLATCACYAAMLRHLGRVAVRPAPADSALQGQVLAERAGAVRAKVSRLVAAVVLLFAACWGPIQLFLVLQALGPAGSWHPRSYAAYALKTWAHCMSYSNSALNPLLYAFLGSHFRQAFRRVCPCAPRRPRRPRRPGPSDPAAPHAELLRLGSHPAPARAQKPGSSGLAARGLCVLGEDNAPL

Molecule: GnRH: gonadotropin-releasing hormone peptide injected in PBS (QHWSYGLRPG; ends and bridges not checked; UniProt P01148 24-33, looked up)
- increase in FSH in serum [1, 6]: 1.7 fold
- increase in FSH in serum ([1]; WT mice injected with GnRH (25 ng x 4 at 30 min intervals) compared to WT injected with just PBS): 1.9 fold
- LH levels in the pituitary after stimulation [2]: corresponding depletion of LH levels in the pituitary
- increase in LH in serum [3, 6]: 5 fold
- increase in LH in serum ([3]; WT mice injected with GnRH compared to WT injected with just PBS): 5 fold

Molecule: galanin-like peptide: galanin-like peptide reported not to activate GPR54 (APAHRGRGGWTLNSAGYLLGPVLHLPQMGDQDGKRETALEILDLWKAIDGLPYSHPPQPS; Galanin-like peptide; UniProt Q9UBC7 25-84, looked up)
- activation of GPR54 (GPR54): neither galanin nor galanin-like peptide activate GPR54

Molecule: kisspeptin-10: kisspeptin peptide injected intravenously in female rat (YNWNSFGLRF; ends and bridges not checked; UniProt Q15726 112-121, looked up)
- oxytocin secretion (oxytocin secretion): stimulates oxytocin secretion

Molecule: metastin: 54 amino acid kisspeptin, product of the Kiss-1 gene, natural ligand of GPR54 (GTSLSPPPESSGSPQQPGLSAPHSRQIPAPQGAVLVQREKDLPNYNWNSFGLRF; ends and bridges not checked; UniProt Q15726 68-121, looked up)
- metastases (melanomas): significantly decreased metastases
- cell motility ([4]; B16-L16 melanoma cells transfected with the GPR54 receptor): inhibits motility
- cell motility ([4]; mock-transfected B16-L16 melanoma cells): not in mock-transfected cells

B1: bHCG: beta human chorionic gonadotrophins (protein, UniProt P0DN86 21-165, looked up)
Choriogonadotropin subunit …: SKEPLRPRCRPINATLAVEKEGCPVCITVNTTICAGYCPTMTRVLQGVLPALPQVVCNYRDVRFESIRLPGCPRGVNPVVSYAVALSCQCALCRRSTTDCGGPKDHPLTCDDPRFQDSSSSKAPPPSLPSPSRLPGPSDTPILPQ
- mutant females with ovulation of mature oocytes [5]: 50%
